Reference: publication PMC7581251 (ACS Omega, 2020)

How the values were obtained:
GSK3β [1] = target: T1, GSK3β (Homo sapiens, UniProt P49841); assay: Promega ADP-Glo kinase assay, GSK3β inhibition; assay type: biochemical; conditions: for inhibition at 100 µM: read-out: Percent Inhibition of GSK3β, 100 μM, single point, n = 3; for IC50: IC50 GSK3β (ADP-Glo), 10-point three-fold dilution from 100 μM, n = 2; for Hill slope GSK3β (ADP-Glo): four-parameter non-linear regression
GSK3α [2] = target: T2, GSK3α (Homo sapiens, UniProt P49840); assay: Z'LYTE kinase assay; assay type: biochemical; conditions: for IC50: IC50 GSK3α (Z'LYTE), values of main text and Table S3; for Selectivity GSK3β versus GSK3α: from Z'LYTE IC50 values
T2 sequence (P49840 whole entry): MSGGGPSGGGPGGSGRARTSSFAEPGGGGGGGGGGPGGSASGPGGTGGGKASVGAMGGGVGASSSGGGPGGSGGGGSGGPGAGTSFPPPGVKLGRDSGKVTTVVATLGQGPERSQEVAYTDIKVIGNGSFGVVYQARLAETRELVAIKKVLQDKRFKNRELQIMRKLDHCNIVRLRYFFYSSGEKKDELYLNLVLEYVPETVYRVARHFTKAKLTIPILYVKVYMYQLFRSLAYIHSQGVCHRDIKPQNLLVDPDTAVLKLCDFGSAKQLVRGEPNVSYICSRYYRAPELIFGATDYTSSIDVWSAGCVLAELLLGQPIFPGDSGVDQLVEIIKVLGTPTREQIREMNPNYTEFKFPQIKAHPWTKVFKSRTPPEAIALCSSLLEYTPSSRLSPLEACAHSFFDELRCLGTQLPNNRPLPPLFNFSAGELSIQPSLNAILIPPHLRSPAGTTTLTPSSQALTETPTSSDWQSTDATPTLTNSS

GSK3β [3] = target: T1, GSK3β; assay: Z'LYTE kinase assay; assay type: biochemical; conditions: for Hill slope GSK3β (Z'LYTE): four-parameter non-linear regression
[4] = cohort of diabetic individuals ref 74; cited from earlier work
GSKβ = conditions: cited from earlier work
GSK3α [5] = target: T2, GSK3α; conditions: cited from earlier work
CYP2D6 = conditions: in vitro ref 75; cited from earlier work

T1 sequence (P49841 whole entry): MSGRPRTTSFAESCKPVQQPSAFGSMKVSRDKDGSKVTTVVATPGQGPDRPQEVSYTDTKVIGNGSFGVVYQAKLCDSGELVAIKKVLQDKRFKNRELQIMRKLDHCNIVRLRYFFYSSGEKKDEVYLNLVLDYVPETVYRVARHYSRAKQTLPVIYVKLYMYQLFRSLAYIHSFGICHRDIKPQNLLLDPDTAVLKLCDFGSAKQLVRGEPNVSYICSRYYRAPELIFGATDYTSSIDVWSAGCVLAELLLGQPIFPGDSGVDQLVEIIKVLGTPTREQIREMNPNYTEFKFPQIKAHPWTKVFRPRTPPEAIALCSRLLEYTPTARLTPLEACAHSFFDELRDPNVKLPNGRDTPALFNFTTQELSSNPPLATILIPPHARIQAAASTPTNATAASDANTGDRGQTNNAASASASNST

Row | inhibition at 100 µM (GSK3β [1]) [%] | IC50 (GSK3β [1]) [µM] | Hill slope GSK3β (ADP-Glo) (GSK3β [1]) | IC50 (GSK3α [2]) [µM] | Selectivity GSK3β versus GSK3α (GSK3α [2]) | IC50 (GSK3β [3]) [µM] | Hill slope GSK3β (Z'LYTE) (GSK3β [3]) | SMILES | Clinical safety [4] | Activity for GSKβ in published kinase screening (GSKβ) | Activity for GSK3α in published kinase screening (GSK3α [5]) | Interaction with CYP2D6 (CYP2D6)
1 | 69 |  |  |  |  |  |  | COC(=O)C1=C(C)NC(C)=C(C(=O)OC)C1c1ccccc1[N+](=O)[O-] [Nifedipine] |  |  |  | 
2 | > 70 | 8.5 | −0.80 | 4.4 | non-selective | 5 | 1.26 | CC(=O)Nc1ncc([N+](=O)[O-])s1 [Nithiamide] |  |  |  | 
3 | 96 |  | −0.68 |  |  |  | 0.98 | CN(C)C[C@@H]1CCn2cc(c3ccccc32)C2=C(C(=O)NC2=O)c2cn(c3ccccc23)CCO1 [Ruboxistaurin] | safe up to 32 mg/day for 4 years | micromolar activity | micromolar activity | potent interactions
4 | > 70 | 12.1 | −0.68 | 60.8 | non-selective | 54.8 | 1.10 | c1ccc2[nH]c(-c3cscn3)nc2c1 [Thiabendazole] |  |  |  | 
